Data taken from article PMC10390107, “The 4-(dimethylaminoalkyl)piperazine inhibitors of α-glucosidase: allosteric enzyme inhibition and identification of interacting chemical groups” (Turkish Journal of Chemistry, 2022).
Entries after “also recorded” stand apart in the source; their conditions may differ. Read-outs that look alike come from different tables or passages of the source.

Biological target: T1, α-glucosidase (EC 3.2.1.20) from Saccharomyces cerevisiae (Saccharomyces cerevisiae, UniProt P53341)
T1 construct: purchased Sigma Chemical Co., St. Louis, USA
Experiment: biochemical
Format: biochemical
Settings: mean of quadruplet experiments ± SEM, from Dixon plots, pH 6.8, 37 °C
Procedure: All in vitro α-glucosidase inhibition assays were performed in a 96-well microplate format. The α-glucosidase inhibition assay reported elsewhere was customized to suit the experimental needs of the current work. The assay mixture contained 50 mM sodium phosphate buffer (pH 6.8), 20 mU of α-glucosidase (EC 3.2.1.20) from Saccharomyces cerevisiae (Sigma Chemical Co., St. Louis, USA), and 1.0 mM of p-nitrophenyl-α-D-glucopyranoside (PNP-G) substrate. All target compounds were dissolved in DMSO with the assay mixture containing DMSO at a final concentration of 3%. […] The reaction was continuously monitored at 400 nm in SpectraMax Plus 384® microplate reader (Molecular Devices, CA, USA). […] All assays were performed as four individual experiments out of which the values of mean and standard error of mean (SEM) were calculated.
The enzyme kinetics assay procedure was essentially the same as mentioned above except that it was specifically designed for the kinetic work. […] The type of inhibition was calculated from the Lineweaver-Burk plots which was further confirmed by the Dixon plot using Grafit 7.0.3 software (Erithacus Software Ltd., Staines, UK). The Ki values were also calculated from their respective Dixon plots. All kinetic experiments were conducted in quadruplicate from which mean Ki values and the SEM were calculated.

T1 sequence (P53341 whole entry): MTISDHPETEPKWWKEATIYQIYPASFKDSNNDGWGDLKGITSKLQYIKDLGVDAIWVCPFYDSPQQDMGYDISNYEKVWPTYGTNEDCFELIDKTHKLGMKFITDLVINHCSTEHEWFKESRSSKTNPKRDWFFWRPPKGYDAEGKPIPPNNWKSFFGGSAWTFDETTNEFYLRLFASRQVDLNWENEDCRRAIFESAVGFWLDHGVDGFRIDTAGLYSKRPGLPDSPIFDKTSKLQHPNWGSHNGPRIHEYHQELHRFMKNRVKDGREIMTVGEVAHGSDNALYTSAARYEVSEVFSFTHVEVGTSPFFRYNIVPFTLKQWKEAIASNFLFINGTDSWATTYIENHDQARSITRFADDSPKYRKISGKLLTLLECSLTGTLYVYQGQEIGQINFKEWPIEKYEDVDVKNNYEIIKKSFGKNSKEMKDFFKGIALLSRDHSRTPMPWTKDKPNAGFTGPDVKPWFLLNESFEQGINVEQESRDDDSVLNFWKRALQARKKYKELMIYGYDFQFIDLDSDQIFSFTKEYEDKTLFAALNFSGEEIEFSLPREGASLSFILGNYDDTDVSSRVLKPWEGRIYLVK

Compound | Ki (read-out: Ki) | Ki
CN(C)CCCN1CCN(C(=S)SCCCC(=O)c2ccc(Cl)cc2)CC1 [PC1] | 5.75 ± 0.2 µM | –
CN(C)CCCN1CCN(C(=S)SCCC(=O)c2ccccc2)CC1 [PC9] | – | no inhibitory activity; also recorded: Inactive
